Reference: patent US6475993B2 (Universite Laval, priority 1998, dated 2002)

Tests used:
[1] = test system: dystrophin; test: Dystrophin immunohistochemistry in skeletal muscle and heart of mdx mice treated with gentamicin; assay type: in vivo; settings: for Dystrophin staining intensity: 7 days
Description: All mice were then sacrificed, their skeletal muscle and their heart were frozen and cryostat sectioned. The presence of dystrophin in these sections was investigated by immunohistochemistry. […] In the untreated mdx muscles, dystrophin immunostaining was observed only in a few revertant fibers (Hoffman et al. 1990). […] The dystrophin staining was less intense in the muscles of mice treated with 1 mg/kg. […] The duration of treatment may vary.

[2] = test system: CFTR protein; settings: gentamicin 200 mg/mL (so in the source), incubation 18 to 24 hours; Howard et al. 1996; cited from earlier work
[3] = test system: mdx mice; test: Toxicity signs in mdx mice treated with gentamicin; assay type: in vivo
Text: Further, any mean by which gentamicin or gentamicin-like or derived molecules can be driven more directly to the site of action is within the scope of this invention.

Question: Which “Success of daily treatments of other route or duration” value ([1]; Sub-cutaneous or intra-muscular daily treatments of 7 to 14 days or longer) does the source give for gentamicin here?
Answer: equivalently successful

Question: And the Dystrophin staining intensity ([1]; mdx mice, I.M. 5 mg/day gentamicin, some muscles)?
Answer: as intense as that observed in the normal mouse muscles

Question: And the “Presence of dystrophin by immunohistochemistry” value ([1]; mdx mice, I.M. gentamicin 1 mg/day or 5 mg/day during 7 days, skeletal muscle and heart cryostat sections)?
Answer: detected by immunohistochemistry on all muscle fibers and all heart muscle cells

Question: What about the Dystrophin staining intensity ([1]; mdx mice, I.M. gentamicin, printed 1 mg/kg) of the same substance?
Answer: less intense

Question: What about the “Suppression of premature stop codon in vivo” value ([1]; mdx mice, dose of 8 to 40 mg per Kg of body weight per day) of the same substance?
Answer: successfully suppressed the premature stop codon

Question: And the “Suppression of premature stop mutation in CFTR gene (full-length CFTR protein)” value [2]?
Answer: permitted to suppress the premature stop mutation

Question: And the Toxicity signs [3]?
Answer: No toxicity signs appeared
